Reference: patent US20250263426A1, “PDE4B INHIBITOR AND USE THEREOF” (Xizang Haisco Pharmaceutical Co., Ltd., priority 2022, published 2025)
Where two headings read alike, the source gives them in different places.

Columns and labels:
PDE4D2 = PDE4D2 (Homo sapiens (Human), UniProt Q08499); assay: Effect of compounds on PDE4D2 activity (fluorescence polarization kit); assay type: biochemical
Procedure: FP was usually represented by mP value.
[formula] • I∥ (S520): fluorescence intensity in parallel direction • I⊥ (P520): fluorescence intensity in perpendicular direction • G: G factor=1
[formula] • mP(sample): mP of the test compound in a reaction well • mP(negative control): mP in the negative control well • mP(positive control): mP in the positive control well
According to the calculated inhibition rate at each concentration, the IC50 value of each compound was calculated by GraphPad Prism 8 software.

[1] = tested on: human peripheral blood mononuclear cells (TNF-α release); assay: Inhibition of LPS-induced TNF-α release from human peripheral blood mononuclear cells in vitro; assay type: cell-based; details: 4 h; for Emax: read-out: Max inhibition (%)
Procedure: 5. Detection of Inhibitory Activity of Compounds on the Release of Tumor Necrosis Factor-α (TNF-α) from Human Peripheral Blood Mononuclear Cells Induced by Lipopolysaccharide (LPS) In Vitro
The concentration of hPBMC cells was adjusted to 0.25×10^6 cells/mL with RPMI1640 medium and inoculated into a 96-well plate in an amount of 50000 cells per well. […] Incubation was carried out for 4 h in an incubator at 37° C. and 5% CO2. The cell supernatant was collected, and the content of TNF-α in the supernatant sample was detected by human TNF-α Elisa quantitative test kit (Sino Biological, Cat #KIT10602). The IC50 value was calculated using GraphPad Prism software.

PDE4B2 = PDE4B2 (Homo sapiens (Human), UniProt Q07343); assay: Effect of compounds on PDE4B2 activity (fluorescence polarization kit)
Sequence of PDE4B2 (Q07343 other isoform, or with tags, fused parts or gaps): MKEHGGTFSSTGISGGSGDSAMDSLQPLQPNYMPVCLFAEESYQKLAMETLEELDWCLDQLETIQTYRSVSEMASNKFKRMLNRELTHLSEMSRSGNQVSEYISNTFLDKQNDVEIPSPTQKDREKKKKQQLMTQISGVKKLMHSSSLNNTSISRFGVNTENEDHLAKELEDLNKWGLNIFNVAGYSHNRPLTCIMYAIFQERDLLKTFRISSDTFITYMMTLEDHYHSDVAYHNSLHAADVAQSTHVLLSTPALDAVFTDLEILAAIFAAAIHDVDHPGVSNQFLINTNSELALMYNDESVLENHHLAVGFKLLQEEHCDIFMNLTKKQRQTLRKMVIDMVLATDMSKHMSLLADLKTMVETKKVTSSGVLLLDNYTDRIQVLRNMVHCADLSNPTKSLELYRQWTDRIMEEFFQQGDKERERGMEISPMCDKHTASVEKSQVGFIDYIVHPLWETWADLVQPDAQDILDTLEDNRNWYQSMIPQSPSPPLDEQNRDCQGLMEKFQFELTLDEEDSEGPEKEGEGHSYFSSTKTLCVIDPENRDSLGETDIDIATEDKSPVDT
Text: [formula] • I∥ (S535): fluorescence intensity in parallel direction • I⊥ (P535): fluorescence intensity in perpendicular direction • G: G factor=1

[2] = Homo sapiens, PBMC, read-out: Re IC50
[3] = Homo sapiens, PBMC, hPBMC, 100 ng/mL LPS
[4] = relative IC50, hPBMC, 100 ng/mL LPS, read-out: Re IC50
[5] = Homo sapiens, PBMC, read-out: Re IC50 (nM)

Sequence of PDE4D2 (Q08499 303-809, change not shown): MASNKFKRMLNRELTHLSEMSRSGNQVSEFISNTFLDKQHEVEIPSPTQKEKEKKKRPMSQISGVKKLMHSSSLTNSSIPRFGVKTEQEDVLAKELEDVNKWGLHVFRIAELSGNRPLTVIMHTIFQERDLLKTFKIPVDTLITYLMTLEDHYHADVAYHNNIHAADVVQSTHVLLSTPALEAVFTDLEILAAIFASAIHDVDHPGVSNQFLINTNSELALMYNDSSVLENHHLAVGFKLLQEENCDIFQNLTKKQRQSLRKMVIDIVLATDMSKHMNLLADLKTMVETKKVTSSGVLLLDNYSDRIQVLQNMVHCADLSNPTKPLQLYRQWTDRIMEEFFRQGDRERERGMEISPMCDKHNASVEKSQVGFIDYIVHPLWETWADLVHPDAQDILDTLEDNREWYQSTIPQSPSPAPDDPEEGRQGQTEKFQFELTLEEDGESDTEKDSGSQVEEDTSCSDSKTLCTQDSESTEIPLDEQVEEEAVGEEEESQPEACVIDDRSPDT

| SMILES | IC50 (PDE4D2) [nM] | IC50 [1, 2] [nM] | Emax [1, 3] [%] | IC50 (PDE4B2) [nM] | Max inhibition (%) ([1]; hPBMC, 100 ng/mL LPS) | IC50 [1, 4] [nM] | IC50 (PDE4B2; read-out: PDE4B2 IC50) [nM] | Emax ([1]; Homo sapiens, PBMC) [%] | IC50 [1, 5] [nM] |
| --- | --- | --- | --- | --- | --- | --- | --- | --- | --- |
| C#Cc1cnc(C2=CCN(c3nc4c(c(NC5(COC(N)=O)CCC5)n3)[S@+]([O-])CC4)CC2)nc1 [Compound 35] | < 10 | < 10 | 85.1 | < 10 | – | – | – | – | – |
| C#Cc1cnc(C2=CCN(c3nc4c(c(Nc5cccc(F)c5)n3)[S@+]([O-])CC4)CC2)nc1 [Compound 36-1] | < 10 | – | – | – | 73.52 | < 10 | < 10 | – | – |
| C#Cc1cnc(C2=CCN(c3nc4c(c(NC5(CN/C(C)=N/C#N)CCC5)n3)[S@+]([O-])CC4)CC2)nc1 [Compound 39] | < 10 | < 10 | 71.1 | < 10 | – | – | – | – | – |
| C#Cc1ccc(N2CCN(c3nc4c(c(NC5(CO)CCC5)n3)[S+]([O-])CCC4)CC2)cc1 (centres unmarked) [Compound 41] | 10 to 50 | – | – | < 10 | – | – | – | 69.8 | 10 to 50 |
| NC(=O)OCC1(Nc2nc(N3C[C@H]4CC(c5ccc(Cl)cc5)=C[C@H]4C3)nc3c2[S@+]([O-])CC3)CCC1 [Compound 44] | 10 to 50 | – | – | – | 77.27 | 10 to 50 | < 10 | – | – |
| NC(=O)OCC1(Nc2nc(N3CC=C(c4ncc(Cl)cn4)CC3)nc3c2[S@+]([O-])CC3)CCC1 [Compound 48] | < 10 | 10 to 50 | 73.9 | < 10 | – | – | – | – | – |
| NC(=O)OCC1(Nc2nc(N3CC=C(c4nc5ccccc5o4)CC3)nc3c2[S@+]([O-])CC3)CCC1 [Compound 49] | < 10 | – | – | – | 73.46 | < 10 | < 10 | – | – |
| Cc1coc(C2=CCN(c3nc4c(c(NC5(COC(N)=O)CCC5)n3)[S@+]([O-])CC4)CC2)n1 [Compound 50] | < 10 | < 10 | 72.1 | < 10 | – | – | – | – | – |
| NC(=O)OCC1(Nc2nc(N3CC=C(c4ncc(Cl)cn4)CC3)nc3c2[S@+]([O-])CC3)CCCC1 [Compound 52] | < 10 | 10 to 50 | – | < 10 | – | – | – | – | – |
| NC(=O)OCC1(Nc2nc(N3CC=C(c4nc5ccccc5s4)CC3)nc3c2[S@+]([O-])CC3)CCC1 [Compound 56] | < 10 | < 10 | – | < 10 | – | – | – | – | – |
| C#Cc1cnc(C2=CCN(c3nc4c(c(NC5(COC(F)F)CCC5)n3)[S+]([O-])CC4)CC2)nc1 (centres unmarked) [Compound 63] | < 10 | 10 to 50 | 72.7 | < 10 | – | – | – | – | – |
| C#Cc1cnc(C2=CCN(c3nc4c(c(NC5(COC)CCC5)n3)[S@+]([O-])CC4)CC2)nc1 [Compound 64] | < 10 | 10 to 50 | 79.9 | < 10 | – | – | – | – | – |
| C#Cc1cnc(C2=CCN(c3nc4c(c(NC5(C(C)O)CCC5)n3)[S@+]([O-])CC4)CC2)nc1 (some centres unmarked) [Compound 66] | < 10 | – | – | < 10 | – | – | – | 67.1 | 10 to 50 |
| C#Cc1ccc(C2=CCN(c3nc4c(c(NC5(CNC(=O)OC)CCC5)n3)[S@+]([O-])CC4)CC2)nc1 [Compound 69] | < 10 | < 10 | 70.9 | < 10 | – | – | – | – | – |
| COC(=O)NCC1(Nc2nc(N3CC=C(c4ncc(Cl)cn4)CC3)nc3c2[S@+]([O-])CC3)CCC1 [Compound 70] | < 10 | < 10 | 55.4 | < 10 | – | – | – | – | – |
| [O-][S+]1CCc2nc(N3CCN4c5ccccc5OC[C@H]4C3)nc(NC3(CO)COC3)c21 (some centres unmarked) [Compound 72-3] | 10 to 50 | – | – | – | 65.66 | < 10 | < 10 | – | – |
| [O-][S+]1CCc2nc(N3CCN4c5ccccc5OC[C@@H]4C3)nc(NC3(CO)COC3)c21 (some centres unmarked) [Compound 72-4] | < 10 | – | – | – | 62.45 | < 10 | < 10 | – | – |

| SMILES | IC50 (PDE4D2) [nM] | IC50 [1, 2] [nM] | Emax [1, 3] [%] | IC50 (PDE4B2) [nM] | Max inhibition (%) ([1]; hPBMC, 100 ng/mL LPS) | IC50 [1, 4] [nM] | IC50 (PDE4B2; read-out: PDE4B2 IC50) [nM] | Emax ([1]; Homo sapiens, PBMC) [%] | IC50 [1, 5] [nM] |
| --- | --- | --- | --- | --- | --- | --- | --- | --- | --- |
| COC(=O)NCC1(Nc2nc(N3C[C@@H]4CC(c5ncc(Cl)cn5)=C[C@@H]4C3)nc3c2[S@+]([O-])CC3)CCC1 [Compound 73-1] | < 10 | < 10 | 67.5 | < 10 | – | – | – | – | – |
| COC(=O)NCC1(Nc2nc(N3C[C@H]4CC(c5ncc(Cl)cn5)=C[C@H]4C3)nc3c2[S@+]([O-])CC3)CCC1 [Compound 73-2] | 10 to 50 | < 10 | 67.9 | < 10 | – | – | – | – | – |
| [O-][S@+]1CCc2nc(N3CC4CN(c5ccc6c(c5)CC6)CC4C3)nc(Nc3cccc(F)c3)c21 (some centres unmarked) [Compound 76-1] | 10 to 50 | – | – | – | 74.65 | 10 to 50 | < 10 | – | – |
| NCC1(Nc2nc(N3CC=C(c4nc5ccccc5s4)CC3)nc3c2[S@+]([O-])CC3)CCC1 [Compound 78] | 10 to 50 | 10 to 50 | 77.4 | 10 to 50 | – | – | – | – | – |
| COC(=O)NCC1(Nc2nc(N3CC=C(c4nc5ccccc5s4)CC3)nc3c2[S@+]([O-])CC3)CCC1 [Compound 79] | < 10 | 10 to 50 | 65.5 | < 10 | – | – | – | – | – |
| [O-][S@+]1CCc2nc(N3CC=C(c4ncc(Cl)cn4)CC3)nc(Nc3ccnc(F)c3)c21 [Compound 85-1] | < 10 | – | – | – | 71.38 | < 10 | < 10 | – | – |
| COC(=O)NCC(C)(C)Nc1nc(N2CC=C(c3ncc(Cl)cn3)CC2)nc2c1[S@+]([O-])CC2 [Compound 88] | < 10 | – | – | – | 74.9 | < 10 | < 10 | – | – |
| CNC(=O)OCC1(Nc2nc(N3CC=C(c4ncc(C5CC5)cn4)CC3)nc3c2[S@+]([O-])CC3)CCC1 [Compound 90] | 10 to 50 | 10 to 50 | 69.5 | 10 to 50 | – | – | – | – | – |
| C#Cc1ccc(C2=CCN(c3nc4c(c(NC5([C@H](C)O)CCC5)n3)[S@+]([O-])CC4)CC2)nc1 [Compound 95-2] | < 10 | – | – | – | 70.67 | < 10 | < 10 | – | – |
| C#Cc1ccc(C2=CCN(c3nc4c(c(NC5([C@@H](C)O)CCC5)n3)[S@@+]([O-])CC4)CC2)nc1 [Compound 95-3] | < 10 | – | – | – | 81.97 | < 10 | < 10 | – | – |
| C#Cc1cnc(C2=CCN(c3nc4c(c(NC5([C@@H](C)O)CCC5)n3)[S@+]([O-])CC4)CC2)nc1 [Compound 96-1] | 10 to 50 | – | – | – | 72.83 | < 10 | < 10 | – | – |
| Cc1cnc2c(c1)OC[C@@H]1CN(c3nc4c(c(NC(C)(C)COC(N)=O)n3)[S@+]([O-])CC4)CCN21 [Compound 142-1] | 10 to 50 | – | – | – | – | – | < 10 | – | – |
| Cc1cnc2c(c1)OC[C@H]1CN(c3nc4c(c(NC(C)(C)COC(N)=O)n3)[S@+]([O-])CC4)CCN21 [Compound 142-2] | 10 to 50 | – | – | – | – | – | 10 to 50 | – | – |
| CCOc1cnc2c(c1)OC[C@@H]1CN(c3nc4c(c(NC(C)(C)COC(N)=O)n3)[S+]([O-])CC4)CCN21 (some centres unmarked) [Compound 146-1] | < 10 | – | – | – | – | – | 10 to 50 | – | – |
| CCOc1cnc2c(c1)OC[C@H]1CN(c3nc4c(c(NC(C)(C)COC(N)=O)n3)[S+]([O-])CC4)CCN21 (some centres unmarked) [Compound 146-2] | 10 to 50 | – | – | – | – | – | 10 to 50 | – | – |
| CCOc1cnc2c(c1)OC[C@@H]1CN(c3nc4c(c(NC(C)(C)CNC(=O)OC)n3)[S@+]([O-])CC4)CCN21 [Compound 147-1] | 50 to 100 | – | – | – | – | – | 10 to 50 | – | – |
| CCOc1cnc2c(c1)OC[C@H]1CN(c3nc4c(c(NC(C)(C)CNC(=O)OC)n3)[S@+]([O-])CC4)CCN21 [Compound 147-2] | 50 to 100 | – | – | – | – | – | 10 to 50 | – | – |
